Data set [1] can be described thus: Toxicity in mouse CD4+ T cells assessed as induction of IL5 at 500 ng/ml. The format is cell-based. The conditions noted are these: t-cell.
Data set [2] has as its system Mus musculus. Put plainly: Toxicity in ip dosed mouse relative to roridin A. The format is organism-based. The following applies: in vivo.
Data set [3] relates to K562. Put plainly: Cytotoxicity against human K562 cells by MTT assay. The format is functional, cell-based. (In general: Tetrazolium dyes change colour on reduction, which living cells bring about.)
The nature of data set [4]: Toxicity in ip dosed mouse. The format is organism-based. The conditions noted are these: in vivo.
Data set [5] is described as follows: Toxicity in mouse CD4+ T cells assessed as induction of IL5 at 100 ng/ml. The format is cell-based. The conditions noted are these: t-cell.
A short description of data set [6]: Toxicity in mouse CD4+ T cells assessed as induction of IL5 at 1000 ng/ml. The format is cell-based. The following applies: t-cell.
Data set [7] is described as follows: Toxicity in mouse CD4+ T cells assessed as induction of IL5 at 0.05 ng/ml. The format is cell-based. The conditions noted are these: t-cell.
Data set [8] can be described thus: Toxicity in mouse CD4+ T cells assessed as induction of IL5 at 1.0 ng/ml. The following applies: t-cell. The format is cell-based.

Each structure is given as a SMILES string.

The EC50 is the concentration giving half of the maximal effect. Read a high EC50 as lower potency in that assay. What is called LD50 is the dose expected to kill half of the subjects tested. Higher therefore signals a less toxic substance.

In the case of `CC(=O)OC[C@]12[C@H](O)C(=O)C(C)=C[C@H]1O[C@@H]1[C@H](O)C[C@@]2(C)[C@]12CO2` [15-ACETYLDEOXYNIVALENOL], the Activity result in data set [1] is recorded as “Toxic”.

In data set [2], `CC1=C[C@H]2O[C@@H]3C[C@@H]4OC(=O)/C=C/C=C/COCC/C([C@@H](O)[C@H](C)O)=C/C(=O)OC[C@@]2(CC1)[C@]4(C)[C@]31CO1` [SATRATOXIN H] had an Activity of 1.

Take `CC(=O)OC[C@]12C[C@H](O)C(C)=C[C@H]1O[C@@H]1[C@H](O)[C@@H](OC(C)=O)[C@@]2(C)[C@]12CO2` [NEOSOLANIOL]: it took 392 nM to reach a half-maximal effect in data set [3] (EC50). Besides, the Activity in data set [2] was determined as 0.5.

On to `CC1=C[C@H]2O[C@@H]3[C@H](O)C[C@](C)([C@@]2(CO)[C@H](O)C1=O)[C@]31CO1` [DEOXYNIVALENOL], for which, in data set [3], the midpoint of the response, the EC50, lay at 1010 nM. Moreover, the LD50 in data set [4] is 70 mg/kg. Besides, the Activity is listed as 4 in data set [2] and “Toxic” in data set [5].

`CC1=C[C@H]2O[C@@H]3[C@H](O)[C@@H](O)[C@](C)([C@@]2(CO)[C@H](O)C1=O)[C@]31CO1` [NIVALENOL]: the EC50 in data set [3] is 960 nM. Also, in data set [4], the LD50 stood at 4.1 mg/kg. Also, the Activity result in data set [5] was “Toxic”.

For `CC(=O)O[C@@H]1C[C@]2(C)[C@@]3(CO)[C@H](O)C(=O)C(C)=C[C@H]3O[C@H]1[C@@]21CO1` [3-ACETYLDEOXYNIVALENOL], the Activity entry in data set [6] is “Toxic”.

In turn, `CC(=O)OC[C@]12C[C@H](OC(=O)CC(C)C)C(C)=C[C@H]1O[C@@H]1[C@H](O)[C@@H](O)[C@@]2(C)[C@]12CO2` [HT-2 TOXIN] gave an EC50 in data set [3] of 47.1 nM. This compound also yielded an Activity in data set [2] of 9.

As to `CC1=C[C@H]2O[C@@H]3C[C@H]4OC(=O)/C=C\C=C\C(=O)OCC[C@@H](C)[C@H](O)C(=O)OC[C@@]2(CC1)[C@]4(C)[C@]31CO1` [VERRUCARIN A], the values for the Activity result in data set [7] and in data set [2] were “Toxic” and 1.5, respectively.

`CC(=O)OC[C@]12CCC(C)=C[C@H]1O[C@@H]1[C@H](O)[C@@H](OC(C)=O)[C@@]2(C)[C@]12CO2` [ANGUIDIN] yielded an EC50 in data set [3] of 2.7 nM. In addition, the Activity in data set [2] was 23.

Regarding `CC(=O)OC[C@]12C[C@H](OC(=O)CC(C)C)C(C)=C[C@H]1O[C@@H]1[C@H](O)[C@@H](OC(C)=O)[C@@]2(C)[C@]12CO2` [T-2 TOXIN], the EC50 in data set [3] was 2.1 nM. Besides, the results for the Activity result in data set [8] and in data set [2] were “Toxic” and 3, respectively.
